{
  "source": "paper PMC11249953",
  "about": "“c-KIT inhibitors reduce pathology and improve behavior in the Tg(SwDI) model of Alzheimer’s disease” (Life Science Alliance, 2024)",
  "key": {"[1]": {"system": "mice", "test": "Elevated plus maze, source data sheets EPM (mouse line not given)", "type": "in vivo", "protocol": "The elevated plus maze was performed using a standard set up, with two enclosed arms and two open arms. Mice were placed at the intersection of the open and closed arms and allowed to freely explore for 5 min, two times. Time spent in the open and closed arms and number of entries into the open and closed arms were recorded."}, "[2]": {"biological_target": "T1, PIKFYVE (Homo sapiens, UniProt Q9Y2I7)", "T1 construct": "DNA label for qPCR read-out (T7 phage fusion or DNA tag); purchased Eurofins DiscoverX Corporation; host or cells: T7 phage in E. coli (BL21-derived) or HEK-293", "T1 sequence (Q9Y2I7 whole entry, the tested form may be a part)": "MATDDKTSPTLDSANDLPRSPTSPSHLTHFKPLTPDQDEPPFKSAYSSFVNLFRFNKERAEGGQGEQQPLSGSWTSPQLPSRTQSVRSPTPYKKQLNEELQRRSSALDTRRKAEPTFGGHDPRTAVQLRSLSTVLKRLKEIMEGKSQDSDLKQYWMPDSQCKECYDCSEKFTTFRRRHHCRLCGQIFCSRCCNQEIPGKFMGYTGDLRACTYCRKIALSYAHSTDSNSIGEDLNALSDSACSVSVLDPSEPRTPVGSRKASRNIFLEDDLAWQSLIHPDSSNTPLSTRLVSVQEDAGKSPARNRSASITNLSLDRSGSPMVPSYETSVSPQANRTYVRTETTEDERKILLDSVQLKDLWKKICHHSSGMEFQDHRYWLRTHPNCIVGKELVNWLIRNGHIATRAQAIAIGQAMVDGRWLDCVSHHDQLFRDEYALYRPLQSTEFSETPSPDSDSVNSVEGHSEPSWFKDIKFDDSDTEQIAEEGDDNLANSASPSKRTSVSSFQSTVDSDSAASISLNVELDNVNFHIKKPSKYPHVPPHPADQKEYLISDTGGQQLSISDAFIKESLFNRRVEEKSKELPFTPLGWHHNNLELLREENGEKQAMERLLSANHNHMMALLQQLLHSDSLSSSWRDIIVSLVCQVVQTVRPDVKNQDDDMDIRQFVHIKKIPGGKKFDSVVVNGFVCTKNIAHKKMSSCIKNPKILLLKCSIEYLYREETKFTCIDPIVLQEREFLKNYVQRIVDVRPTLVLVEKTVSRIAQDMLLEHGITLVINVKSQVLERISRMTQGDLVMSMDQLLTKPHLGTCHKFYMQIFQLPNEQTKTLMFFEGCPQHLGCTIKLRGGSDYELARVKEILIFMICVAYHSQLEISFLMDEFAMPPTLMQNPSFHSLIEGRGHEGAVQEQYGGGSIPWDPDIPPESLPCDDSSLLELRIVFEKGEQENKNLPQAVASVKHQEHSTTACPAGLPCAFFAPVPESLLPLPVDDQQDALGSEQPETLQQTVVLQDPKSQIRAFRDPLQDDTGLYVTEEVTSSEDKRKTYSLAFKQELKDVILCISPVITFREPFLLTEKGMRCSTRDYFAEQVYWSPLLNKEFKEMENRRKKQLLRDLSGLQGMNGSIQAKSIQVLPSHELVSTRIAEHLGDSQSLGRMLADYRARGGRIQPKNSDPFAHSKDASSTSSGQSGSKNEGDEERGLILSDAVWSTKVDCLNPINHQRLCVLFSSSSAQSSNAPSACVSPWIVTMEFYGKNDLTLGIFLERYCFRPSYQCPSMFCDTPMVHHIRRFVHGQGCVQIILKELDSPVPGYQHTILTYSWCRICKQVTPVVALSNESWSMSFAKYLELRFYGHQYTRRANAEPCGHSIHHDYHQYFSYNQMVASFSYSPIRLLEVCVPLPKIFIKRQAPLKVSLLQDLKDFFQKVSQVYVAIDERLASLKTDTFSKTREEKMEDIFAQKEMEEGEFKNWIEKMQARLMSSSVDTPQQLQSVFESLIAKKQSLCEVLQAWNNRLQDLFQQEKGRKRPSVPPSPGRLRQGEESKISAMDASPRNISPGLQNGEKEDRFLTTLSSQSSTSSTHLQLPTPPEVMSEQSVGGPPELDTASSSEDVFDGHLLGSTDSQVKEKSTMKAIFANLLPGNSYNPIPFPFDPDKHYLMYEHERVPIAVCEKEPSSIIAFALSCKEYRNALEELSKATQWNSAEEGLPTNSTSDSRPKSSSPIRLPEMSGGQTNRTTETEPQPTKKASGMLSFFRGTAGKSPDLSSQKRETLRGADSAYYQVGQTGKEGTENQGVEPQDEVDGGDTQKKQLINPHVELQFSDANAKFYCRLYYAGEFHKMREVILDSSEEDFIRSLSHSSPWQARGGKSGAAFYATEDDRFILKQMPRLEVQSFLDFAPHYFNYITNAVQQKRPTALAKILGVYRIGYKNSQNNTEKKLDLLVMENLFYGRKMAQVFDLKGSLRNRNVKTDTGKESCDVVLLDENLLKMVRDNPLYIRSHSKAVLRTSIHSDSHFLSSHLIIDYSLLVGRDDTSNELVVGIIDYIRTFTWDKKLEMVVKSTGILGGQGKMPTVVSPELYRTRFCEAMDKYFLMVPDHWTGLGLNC", "test": "KINOMEscan competition binding, PIKFYVE", "conditions": "10 µM compound", "protocol": "The KINOMEscan screening platform (Eurofins DiscoverX Corporation) was performed using active site-directed competition binding assay to quantitatively measure interactions between BK40143 and BK40197 and more than 450 human kinases and disease relevant mutant variants. […] Screening “hits” are identified by measuring the amount of kinase captured in test (BK40143 and BK40197) versus control samples by using a quantitative and ultra-sensitive qRT-PCR method that detects the associated DNA label. BK40143 and BK40197 were screened at 10 µM concentration, and results for primary screen binding interactions were reported as “% Ctrl” (POC), where lower numbers indicate stronger hits and calculated as follows: [test compound signal−positive control signal/negative control signal−positive control signal]×100\nnegative control = DMSO (100% Ctrl)\npositive control = control compound (0% Ctrl)\nBased on screening data from of profiled compounds, a proportional relationship between primary screening results and corresponding compound/target affinities can be described as binding constants (Kd values) for the indicated ranges of POC values with tighter binding (higher affinity) interactions associated with lower POC values and weaker binding (lower affinity) associated with higher POC values. Briefly, kinase-tagged T7 phage strains were grown in parallel in 24-well blocks in an E. coli host derived from the BL21 strain. E. coli were grown to log-phase and infected with T7 phage from a frozen stock (multiplicity of infection = 0.4) and incubated with shaking at 32°C until lysis (90–150 min). The lysates were centrifuged (6,000g) and filtered (0.2 μm) to remove cell debris. The remaining kinases were produced in HEK-293 cells and subsequently tagged with DNA for qRT-PCR detection. Streptavidin-coated magnetic beads were treated with biotinylated small molecule ligands for 30 min at RT to generate affinity resins for kinase assays. The liganded beads were blocked with excess biotin and washed with blocking buffer (1% BSA, 0.05% Tween 20, 1 mM DTT; SeaBlock [Pierce]) to remove unbound ligand and to reduce non-specific phage binding. Binding reactions were assembled by combining kinases, liganded affinity beads, and test compounds in 1x binding buffer (20% 0.17x PBS, 0.05% Tween 20, 6 mM DTT; SeaBlock). Test compounds were prepared as 100x stocks in 100% DMSO and directly diluted into the assay. All reactions were performed in polypropylene 384-well plates in a final volume of 0.02 ml. The assay plates were incubated at RT with shaking for 1 h and the affinity beads were washed with wash buffer (1x PBS, 0.05% Tween 20). […] The kinase concentration in the eluates was measured by qRT-PCR."}, "[3]": {"conditions": "Totals (Trial 1 + Trial 2), individual animals, listed as 197"}, "[4]": {"conditions": "Trial 1, individual animals, listed as 197"}, "[5]": {"conditions": "Trial 2, individual animals, listed as 197"}, "[6]": {"conditions": "elevated plus maze, trial 1 + trial 2, one value per mouse, listed as 197"}, "[7]": {"conditions": "elevated plus maze, trial 1, one value per mouse, listed as 197"}, "[8]": {"conditions": "elevated plus maze, trial 2, one value per mouse, listed as 197"}},
  "note": "Several values for one entry are separate records, joined by “and”; a condition that tells them apart may be missing. Identical values can stand only once.",
  "data": [
    {"compound": "Cc1cccc(-c2cc3nccc(N4CCOCC4)c3s2)c1", "note": "[BK40197]", "values": [
      {"measurement": "Closed Entries", "setting": "[1]; [3]", "result": "13 and 8 and 4 and 2 and 14 and 3 and 9"},
      {"measurement": "Open Entries", "setting": "[1]; [3]", "result": "8 and 9 and 7 and 13 and 15 and 5 and 10"},
      {"measurement": "Time Closed", "setting": "[1]; Totals (Trial 1 + Trial 2), individual animals, listed as 197, in s", "result": "299 and 472 and 180 and 74 and 440 and 274 and 198 and 409"},
      {"measurement": "Time Open", "setting": "[1]; Totals (Trial 1 + Trial 2), individual animals, listed as 197, in s (unit assumed)", "result": "301 and 128 and 420 and 526 and 160 and 326 and 402 and 191"},
      {"measurement": "Closed Entries AVG", "setting": "[1]; Totals, group average", "result": 8.25},
      {"measurement": "Open Entries AVG", "setting": "[1]; Totals, group average", "result": 9.5},
      {"measurement": "Time Closed AVG", "setting": "[1]; Totals, group average, in s", "result": 293.25},
      {"measurement": "Time Open AVG", "setting": "[1]; Totals, group average, in s", "result": 306.75},
      {"measurement": "Closed Entries AVG", "setting": "[1]; Trial 1, group average", "result": 3.75},
      {"measurement": "Open Entries AVG", "setting": "[1]; Trial 1, group average", "result": 6.5},
      {"measurement": "Time Closed AVG", "setting": "[1]; Trial 1, group average, in s", "result": 86.375},
      {"measurement": "Time Open AVG", "setting": "[1]; Trial 1, group average, in s", "result": 213.625},
      {"measurement": "Closed Entries", "setting": "[1]; [4]", "result": "3 and 4 and 1 and 8 and 0 and 7"},
      {"measurement": "Open Entries", "setting": "[1]; [4]", "result": "5 and 6 and 8 and 4 and 11 and 1 and 9"},
      {"measurement": "Time Closed", "setting": "[1]; Trial 1, individual animals, listed as 197, in s", "result": "60 and 208 and 48 and 55 and 163 and 41 and 0 and 116"},
      {"measurement": "Time Open", "setting": "[1]; Trial 1, individual animals, listed as 197, in s (unit assumed)", "result": "240 and 92 and 252 and 245 and 137 and 259 and 300 and 184"},
      {"measurement": "Closed Entries AVG", "setting": "[1]; Trial 2, group average", "result": 4.5},
      {"measurement": "Open Entries AVG", "setting": "[1]; Trial 2, group average", "result": 3},
      {"measurement": "Time Closed AVG", "setting": "[1]; Trial 2, group average, in s", "result": 206.875},
      {"measurement": "Time Open AVG", "setting": "[1]; Trial 2, group average, in s", "result": 93.125},
      {"measurement": "Closed Entries", "setting": "[1]; [5]", "result": "10 and 4 and 1 and 5 and 3 and 2"},
      {"measurement": "Open Entries", "setting": "[1]; [5]", "result": "3 and 1 and 2 and 7 and 4"},
      {"measurement": "Time Closed", "setting": "[1]; Trial 2, individual animals, listed as 197, in s", "result": "239 and 264 and 132 and 19 and 277 and 233 and 198 and 293"},
      {"measurement": "Time Open", "setting": "[1]; Trial 2, individual animals, listed as 197, in s (unit assumed)", "result": "61 and 36 and 168 and 281 and 23 and 67 and 102 and 7"},
      {"measurement": "Time/Entry AVG", "setting": "[1]; elevated plus maze, group average", "result": 8.7983},
      {"measurement": "Open Entries AVG", "setting": "[1]; elevated plus maze, group average of totals", "result": 14.5714},
      {"measurement": "Time Open AVG", "setting": "[1]; elevated plus maze, group average of totals, in s", "result": 96.8},
      {"measurement": "Time/Entry", "setting": "[1]; elevated plus maze, total time open / total open entries, one value per mouse, listed as 197", "result": "3.925 and 5.671 and 12.2 and 2.561 and 11.6778 and 13.5375 and 12.015"},
      {"measurement": "Open Entries", "setting": "[1]; elevated plus maze, totals listed by treatment group, one value per mouse, listed as 197", "result": "12 and 7 and 2 and 44 and 9 and 8 and 20"},
      {"measurement": "Totals Closed Entries", "setting": "[1]; [6]", "result": "22 and 15 and 11 and 38 and 10 and 3 and 12"},
      {"measurement": "Totals Open Entries", "setting": "[1]; [6]", "result": "9 and 8 and 20 and 12 and 7 and 2 and 44"},
      {"measurement": "Totals Time Open", "setting": "[1]; elevated plus maze, trial 1 + trial 2, one value per mouse, listed as 197, in s", "result": "105.1 and 108.3 and 240.3 and 47.1 and 39.7 and 24.4 and 112.7"},
      {"measurement": "Totals Time Closed", "setting": "[1]; elevated plus maze, trial 1 + trial 2, one value per mouse, listed as 197, in s (unit assumed)", "result": "346 and 410.7 and 291.7 and 404.6 and 493.6 and 547.6 and 346.3"},
      {"measurement": "Trial 1 Closed Entries", "setting": "[1]; [7]", "result": "17 and 7 and 6 and 31 and 5 and 2 and 8"},
      {"measurement": "Trial 1 Open Entries", "setting": "[1]; [7]", "result": "6 and 8 and 12 and 10 and 1 and 15"},
      {"measurement": "Trial 1 Time Closed", "setting": "[1]; elevated plus maze, trial 1, one value per mouse, listed as 197, in s (unit assumed)", "result": "123.7 and 123.9 and 82.1 and 166.6 and 229.4 and 269.8 and 138"},
      {"measurement": "Trial 2 Closed Entries", "setting": "[1]; [8]", "result": "5 and 8 and 7 and 1 and 4"},
      {"measurement": "Trial 2 Open Entries", "setting": "[1]; [8]", "result": "3 and 0 and 8 and 2 and 1 and 29"},
      {"measurement": "Trial 2 Time Open", "setting": "[1]; elevated plus maze, trial 2, one value per mouse, listed as 197, in s", "result": "39.9 and 0 and 56.7 and 15.1 and 0.5 and 14.1 and 49"},
      {"measurement": "Trial 2 Time Closed", "setting": "[1]; elevated plus maze, trial 2, one value per mouse, listed as 197, in s (unit assumed)", "result": "222.3 and 286.8 and 209.6 and 238 and 264.2 and 277.8 and 208.3"},
      {"measurement": "Time/Entry AVG", "setting": "[1]; group average", "result": 38.3997},
      {"measurement": "inhibition at 10 µM", "setting": "[2]", "result": 99.6, "unit": "%"},
      {"measurement": "remaining binding at 10 µM", "setting": "[2]; lower = stronger binding, read-out: PIKFYVE %Ctrl @ 10000nM (POC)", "result": 0.4, "unit": "%"}
    ]}
  ]
}
